pEC50: −log10 of the molar value.

The target in assay [1] is T1, Peroxisome proliferator-activated receptor gamma (Homo sapiens, UniProt P37231).
T1 sequence (P37231 whole entry): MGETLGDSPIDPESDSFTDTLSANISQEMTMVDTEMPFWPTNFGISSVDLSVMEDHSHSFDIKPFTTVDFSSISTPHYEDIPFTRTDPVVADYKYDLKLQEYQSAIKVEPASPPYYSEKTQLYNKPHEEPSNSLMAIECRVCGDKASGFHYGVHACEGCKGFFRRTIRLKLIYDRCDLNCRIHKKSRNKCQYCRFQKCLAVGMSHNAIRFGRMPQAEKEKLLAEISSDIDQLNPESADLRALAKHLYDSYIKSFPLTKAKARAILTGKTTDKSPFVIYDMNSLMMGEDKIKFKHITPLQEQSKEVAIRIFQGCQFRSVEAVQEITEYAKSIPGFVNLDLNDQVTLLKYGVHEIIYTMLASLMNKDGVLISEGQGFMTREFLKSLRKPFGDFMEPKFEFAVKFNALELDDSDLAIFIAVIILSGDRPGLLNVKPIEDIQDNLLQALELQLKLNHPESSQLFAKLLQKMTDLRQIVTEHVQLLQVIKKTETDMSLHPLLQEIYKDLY
In words: (§1) Reporter Gene Assay: Transactivation Assay Expression vectors were prepared by inserting the ligand binding domain cDNA (complementary DNA) of human PPARalpha (amino acid 168-468) and human PPARgamma (amino acid 205-505), 3′ to and in frame with, the yeast GAL4 transcription factor DNA binding domain and the nuclear localization signal from the T-antigen of Polyoma Virus into the mammalian expression vector pSGS (Stratagene). The resulting expression vectors pSGGAL-PPARalpha and pSGGAL-PPARgamma were used in co-transfection experiments together with a modified pGL3 promoter plasmid (Promega) containing five copies of the UAS GAL4 recognition site. 2.5 μg pSGGAL-PPARalpha or pSGGAL-PPARgamma were mixed with 25 μg pGL3p […] and 22.5 μg pBluescript (Stratagene) in 0.95 mL ice cold PBS containing between 9-12 million U-2 OS (human osteosarcoma) cells. The cell/DNA mixture was incubated on ice for 5 minutes and then divided between two 0.4 cm cuvettes and electroporated at 960 μF, 2.

The target in assay [2] is T2, Peroxisome proliferator-activated receptor alpha (Homo sapiens, UniProt Q07869).
T2 sequence (Q07869 whole entry): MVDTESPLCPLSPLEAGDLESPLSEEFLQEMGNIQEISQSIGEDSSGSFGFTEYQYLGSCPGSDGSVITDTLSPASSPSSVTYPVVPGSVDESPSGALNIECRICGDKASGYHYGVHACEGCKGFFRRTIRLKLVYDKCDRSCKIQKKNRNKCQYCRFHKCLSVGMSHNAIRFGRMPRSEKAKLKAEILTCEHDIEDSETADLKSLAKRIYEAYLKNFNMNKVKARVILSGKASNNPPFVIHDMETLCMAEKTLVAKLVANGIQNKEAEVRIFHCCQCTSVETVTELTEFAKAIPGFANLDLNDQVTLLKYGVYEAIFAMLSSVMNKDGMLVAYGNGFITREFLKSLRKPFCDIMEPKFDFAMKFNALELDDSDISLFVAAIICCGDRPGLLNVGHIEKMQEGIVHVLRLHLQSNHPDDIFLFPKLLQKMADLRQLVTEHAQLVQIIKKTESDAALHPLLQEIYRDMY
The description is as §1.

In the case of `CS(=O)(=O)Oc1ccc(CC(=O)OCc2ccc(CC(SCCc3ccc(F)cc3)C(=O)O)cc2)cc1` (stereo unspecified), the pEC50 in assay [1] is 5.77; in assay [2] it was 6.62.
With `CS(=O)(=O)Oc1ccc(C(=O)OCc2ccc(CC(SCCc3ccc(F)cc3)C(=O)O)cc2)cc1` (stereo unspecified), the pEC50 is 5.74 in assay [1] and 6.62 in assay [2].
Turning to `O=C(Cc1ccccn1)OCc1ccc(CC(SCCc2ccc(F)cc2)C(=O)O)cc1` (stereo unspecified), the pEC50 in assay [1] is 5.68; in assay [2] it was 5.82.

Values taken from ChEMBL document CHEMBL3886340, “2-substituted-3-phenylpropionic acid derivatives and their use in the treatment of inflammatory bowel disease” (2015).
